From patent US9580444B2, “Polycyclic pyrazolinone derivative and herbicide comprising same as effective component thereof” (priority 2013, dated 2017)

Key:
Assay type in all cases: in vivo
Conditions in all cases: 500 g a.i/ha, foliage treatment after emergence, about 14 days after treatment, score 0-5
corn = assay: Test Example-4: phytotoxicity by a foliage treatment after weeds are generated under upland field conditions
From the text: (§1) Using the formulation prepared according to the methods described above, the herbicidal effect of the bicyclic pyrazolinone derivative of the invention according to the methods shown in Test Examples below was examined. The herbicidal effect with respect to the test weeds or the phytotoxicity with respect to the test crops was examined according to the following criteria, and evaluated in six stage scores of 0 to 5. A vat having an area of 65 cm^2 and a depth of 2 cm was filled with upland soil, then, seeds of Amaranthus viridis (green amaranthus), Abutilon theophrasti (velvetleaf), Chenopodium album (common lambsquarters), […]. While watering was suitably performed on there, the seeds were grown for 14 days. A wettable powder or an emulsifiable concentrate of the compound of the present invention prepared according to Formulation Example was diluted, and a spray treatment was uniformly performed on the foliage portion of the plant so as to be a predetermined dosage in the amount of water of 4000 L per hectare. The herbicidal effect with respect to the test weeds and the phytotoxicity with respect to corn about 14 days after the treatment were evaluated according to the evaluation criteria in six stages of 0 to 5 described above.

[1] = system: Abutilon theophrasti (velvetleaf); assay: Test Example-4: herbicidal effect by a foliage treatment after weeds are generated under upland field conditions
From the text: as §1

[2] = system: Amaranthus viridis (green amaranthus); assay: as above
From the text: as §1

[3] = system: Chenopodium album (common lambsquarters); assay: as above
From the text: as §1

| Structure (SMILES) | Phytotoxicity Corn (corn) | Herbicidal effect Abutilon theophrast [1] | Herbicidal effect Amaranthus viridis [2] | Herbicidal effect Chenopodium album [3] |
| --- | --- | --- | --- | --- |
| CC1(COc2cc(-c3c(Cl)n4n(c3=O)CCCC4)c(F)cc2Cl)CC(c2ccc(Cl)cc2Cl)=NO1 (stereo not shown) [Example 4-12] | 1 (Herbicidal effect/phytotoxicity was 10% to 30%) | 5 (Herbicidal effect/phytotoxicity was 90% or greater) | 5 (Herbicidal effect/phytotoxicity was 90% or greater) | 5 (Herbicidal effect/phytotoxicity was 90% or greater) |
| CCOC(=O)COc1cc(-c2c(Cl)n3n(c2=O)CCCC3)c(F)cc1Cl [Example 1-163] | 0 (Herbicidal effect/phytotoxicity was 0% to 10%) | 5 (Herbicidal effect/phytotoxicity was 90% or greater) | 5 (Herbicidal effect/phytotoxicity was 90% or greater) | 5 (Herbicidal effect/phytotoxicity was 90% or greater) |
| C=CCOc1cccc(Oc2cc(-c3c(Cl)n4n(c3=O)CCCC4)c(F)cc2Cl)c1 [Example 3-28] | 0 (Herbicidal effect/phytotoxicity was 0% to 10%) | 5 (Herbicidal effect/phytotoxicity was 90% or greater) | 5 (Herbicidal effect/phytotoxicity was 90% or greater) | 5 (Herbicidal effect/phytotoxicity was 90% or greater) |
| CC1(COc2cc(-c3c(Cl)n4n(c3=O)CCCC4)c(F)cc2Cl)CC(c2ccccc2Cl)=NO1 (stereo not shown) [Example 4-5] | 1 (Herbicidal effect/phytotoxicity was 10% to 30%) | 5 (Herbicidal effect/phytotoxicity was 90% or greater) | 5 (Herbicidal effect/phytotoxicity was 90% or greater) | 5 (Herbicidal effect/phytotoxicity was 90% or greater) |
| C=CCOc1ccccc1Oc1cc(-c2c(Cl)n3n(c2=O)CCCC3)c(F)cc1Cl [Example 3-21] | 1 (Herbicidal effect/phytotoxicity was 10% to 30%) | 5 (Herbicidal effect/phytotoxicity was 90% or greater) | 5 (Herbicidal effect/phytotoxicity was 90% or greater) | 5 (Herbicidal effect/phytotoxicity was 90% or greater) |
| CCCOC(=CC(=O)OCC)COc1cc(-c2c(Cl)n3n(c2=O)CCCC3)c(F)cc1Cl (mixture of isomers) [Example 2-20] | 0 (Herbicidal effect/phytotoxicity was 0% to 10%) | 5 (Herbicidal effect/phytotoxicity was 90% or greater) | 5 (Herbicidal effect/phytotoxicity was 90% or greater) | 5 (Herbicidal effect/phytotoxicity was 90% or greater) |
| CC1(COc2cc(-c3c(Cl)n4n(c3=O)CCCC4)c(F)cc2Cl)CC(c2ccc(F)cc2Cl)=NO1 (stereo not shown) [Example 4-11] | 2 (Herbicidal effect/phytotoxicity was 30% to 50%) | 5 (Herbicidal effect/phytotoxicity was 90% or greater) | 5 (Herbicidal effect/phytotoxicity was 90% or greater) | 5 (Herbicidal effect/phytotoxicity was 90% or greater) |
| COC(=O)C=C(COc1ccccc1Oc1cc(-c2c(Cl)n3n(c2=O)CCCC3)c(F)cc1Cl)OC [Example 3-23] | 0 (Herbicidal effect/phytotoxicity was 0% to 10%) | 5 (Herbicidal effect/phytotoxicity was 90% or greater) | 5 (Herbicidal effect/phytotoxicity was 90% or greater) | 5 (Herbicidal effect/phytotoxicity was 90% or greater) |
| C=CCOC(=O)C=C(COc1cc(-c2c(Cl)n3n(c2=O)CCCC3)c(F)cc1Cl)OC (mixture of isomers) [Example 2-8] | 2 (Herbicidal effect/phytotoxicity was 30% to 50%) | 5 (Herbicidal effect/phytotoxicity was 90% or greater) | 5 (Herbicidal effect/phytotoxicity was 90% or greater) | 5 (Herbicidal effect/phytotoxicity was 90% or greater) |
| O=c1c(-c2cc([N+](=O)[O-])c(Cl)cc2F)c(C(F)(F)F)n2n1CCCC2 [Example 1-336] | 0 (Herbicidal effect/phytotoxicity was 0% to 10%) | 5 (Herbicidal effect/phytotoxicity was 90% or greater) | 5 (Herbicidal effect/phytotoxicity was 90% or greater) | 5 (Herbicidal effect/phytotoxicity was 90% or greater) |
| COc1cc(-c2c(Cl)n3n(c2=O)CCCC3)ccc1Cl [Example 1-44] | 0 (Herbicidal effect/phytotoxicity was 0% to 10%) | 5 (Herbicidal effect/phytotoxicity was 90% or greater) | 5 (Herbicidal effect/phytotoxicity was 90% or greater) | 5 (Herbicidal effect/phytotoxicity was 90% or greater) |
| COC(=O)C=C(COc1cc(-c2c(Cl)n3n(c2=O)CCCC3)c(F)cc1Cl)OC (mixture of isomers) [Example 2-1] | 1 (Herbicidal effect/phytotoxicity was 10% to 30%) | 5 (Herbicidal effect/phytotoxicity was 90% or greater) | 5 (Herbicidal effect/phytotoxicity was 90% or greater) | 5 (Herbicidal effect/phytotoxicity was 90% or greater) |
| C=C(C)COC(=O)C=C(COc1cc(-c2c(Cl)n3n(c2=O)CCCC3)c(F)cc1Cl)OCC [Example 2-30] | 0 (Herbicidal effect/phytotoxicity was 0% to 10%) | 5 (Herbicidal effect/phytotoxicity was 90% or greater) | 5 (Herbicidal effect/phytotoxicity was 90% or greater) | 5 (Herbicidal effect/phytotoxicity was 90% or greater) |
| CC(C)Oc1cc(-c2c(Cl)n3n(c2=O)CCCC3)ccc1Cl [Example 1-49] | 0 (Herbicidal effect/phytotoxicity was 0% to 10%) | 5 (Herbicidal effect/phytotoxicity was 90% or greater) | 5 (Herbicidal effect/phytotoxicity was 90% or greater) | 5 (Herbicidal effect/phytotoxicity was 90% or greater) |
| C#CCOc1cc(-c2c(Cl)n3n(c2=O)CCOCC3)ccc1Cl [Example 1-66] | 1 (Herbicidal effect/phytotoxicity was 10% to 30%) | 5 (Herbicidal effect/phytotoxicity was 90% or greater) | 5 (Herbicidal effect/phytotoxicity was 90% or greater) | 5 (Herbicidal effect/phytotoxicity was 90% or greater) |
| CC1(COc2cc(-c3c(Cl)n4n(c3=O)CCCC4)c(F)cc2Cl)CC(c2ccccc2)=NO1 (stereo not shown) [Example 4-1] | 0 (Herbicidal effect/phytotoxicity was 0% to 10%) | 5 (Herbicidal effect/phytotoxicity was 90% or greater) | 5 (Herbicidal effect/phytotoxicity was 90% or greater) | 5 (Herbicidal effect/phytotoxicity was 90% or greater) |
| CC#CCOc1ccccc1Oc1cc(-c2c(Cl)n3n(c2=O)CCCC3)c(F)cc1Cl [Example 3-30] | 1 (Herbicidal effect/phytotoxicity was 10% to 30%) | 5 (Herbicidal effect/phytotoxicity was 90% or greater) | 5 (Herbicidal effect/phytotoxicity was 90% or greater) | 5 (Herbicidal effect/phytotoxicity was 90% or greater) |
| O=c1c(-c2cc(NS(=O)(=O)c3ccccc3Cl)c(Cl)cc2F)c(Cl)n2n1CCCC2 [Example 5-63] | 0 (Herbicidal effect/phytotoxicity was 0% to 10%) | 5 (Herbicidal effect/phytotoxicity was 90% or greater) | 5 (Herbicidal effect/phytotoxicity was 90% or greater) | 5 (Herbicidal effect/phytotoxicity was 90% or greater) |
| CCCOC(=O)C=C(COc1cc(-c2c(Cl)n3n(c2=O)CCCC3)c(F)cc1Cl)OCC (mixture of isomers) [Example 2-23] | 0 (Herbicidal effect/phytotoxicity was 0% to 10%) | 5 (Herbicidal effect/phytotoxicity was 90% or greater) | 5 (Herbicidal effect/phytotoxicity was 90% or greater) | 5 (Herbicidal effect/phytotoxicity was 90% or greater) |
